{"source": "patent US20040248764A1", "about": "(priority 2001, published 2004)", "key": {"[1]": {"tested_on": "Xylella", "format": "cell-based"}, "[2]": {"tested_on": "Xylella sp. strains Shiraz, Melody, Coyaga", "format": "cell-based", "conditions": "10^8 CFU"}, "[3]": {"tested_on": "Spiroplasma citri", "format": "cell-based"}, "[4]": {"tested_on": "S. melliferum", "format": "cell-based"}, "[5]": {"tested_on": "S. apis", "format": "cell-based"}, "[6]": {"tested_on": "S. floricola", "format": "cell-based"}, "[7]": {"tested_on": "Mycoplasma iowae", "format": "cell-based"}, "[8]": {"tested_on": "aster yellow phytoplasma (AYP)", "format": "in vivo, Catharanthus roseus"}, "[9]": {"tested_on": "Xylella fastidiosa strains", "experiment": "microbe, parasite or virus in culture", "format": "cell-based", "conditions": "for MIC: Xylella fastidiosa"}, "[10]": {"tested_on": "Xylella fastidiosa", "format": "in vivo, grapevines"}, "[11]": {"tested_on": "X. fastidiosa-infected grapevines", "conditions": "in vivo"}, "[12]": {"tested_on": "X. fastidiosa-infected grapevines", "conditions": "in vivo", "remark": "listed apart in the source"}, "[13]": {"tested_on": "grape", "conditions": "in vivo"}, "[14]": {"tested_on": "healthy vines", "conditions": "in vivo"}, "[15]": {"tested_on": "E. coli", "conditions": "cited from earlier work"}}, "note": "Where “and” joins values, the source holds several entries; their conditions need not be identical. Equal values may be shown once. Read-outs that look alike come from different tables or passages of the source.", "data": [{"smiles": "CC(C)=CCCC(C)=CC=O", "note": "[citral, 3,7-dimethyl-2,6-octadien-1-al]", "values": [{"measurement": "effect on Xylella", "setting": "[1]; 62.5 ppm citral", "value": "No complete kill but get stasis"}, {"measurement": "kill of Xylella", "setting": "[1]; 125 ppm citral", "value": 100, "unit": "% kill"}, {"measurement": "kill of Xylella", "setting": "[1]; 500 ppm citral", "value": 100, "unit": "% kill"}, {"measurement": "Xylella growth (CFU)", "setting": "[2]; strain Coyaga, 3.25 ppm", "value": "TNTC"}, {"measurement": "Xylella growth (CFU)", "setting": "[2]; strain Coyaga, 62.5 ppm", "value": "TNTC"}, {"measurement": "Xylella growth (CFU)", "setting": "[2]; strain Melody, 3.25 ppm", "value": "TNTC"}, {"measurement": "Xylella growth (CFU)", "setting": "[2]; strain Melody, 62.5 ppm", "value": "TNTC"}, {"measurement": "Xylella growth (CFU)", "setting": "[2]; strain Shiraz, 3.25 ppm", "value": "TNTC"}, {"measurement": "Xylella growth (CFU)", "setting": "[2]; strain Shiraz, 62.5 ppm", "value": "TNTC**"}, {"measurement": "cells that survived the treatment", "setting": "[3]", "value": "no cells"}, {"measurement": "cells that survived the treatment", "setting": "[4]", "value": "no cells"}, {"measurement": "color changing units", "setting": "[5]", "value": "10^9 CCUs and 10^7 CCUs and 10^3 CCUs"}, {"measurement": "color changing units", "setting": "[6]", "value": "10^9 CCUs and 10^6 CCUs"}, {"measurement": "color changing units", "setting": "[7]", "value": "10^8 CCUs and 10^7 CCUs and 10^6 CCUs and 10^5 CCUs and 10^4 CCUs"}, {"measurement": "kill of cells by the treatment", "setting": "[7]", "value": "not enough to kill"}, {"measurement": "AYP symptoms of treated plants", "setting": "[8]; 500 ppm citral in water, 500 mL per plant Day 8 and Day 14, three plants, as of Day 108", "value": "remained symptomless"}, {"measurement": "AYP symptoms of treated periwinkles", "setting": "[8]; 500 ppm, 500 mL per plant Day 8 and Day 15, three plants, as of Day 174", "value": "remained symptomless"}, {"measurement": "delay of symptom development", "setting": "[8]; in vivo", "value": 22, "unit": "days"}, {"measurement": "effect on cells of X. fastidiosa strains", "setting": "[9]; 250 ppm, 24-hr. treatment", "value": "killed cells of all 11 strains"}, {"measurement": "MIC", "setting": "[9]; 4 grape strains, 2 sycamore strains, and 1 peach strain", "value": 125, "unit": "µg/mL"}, {"measurement": "MIC", "setting": "[9]; 24 h, strain 2#6, Plum leaf scald", "value": 62.5, "unit": "µg/mL"}, {"measurement": "MIC", "setting": "[9]; 24 h, strain 3SV, Pierce's disease of grapevine", "value": 125, "unit": "µg/mL"}, {"measurement": "MIC", "setting": "[9]; 24 h, strain 4#5, Phony disease of peach", "value": 125, "unit": "µg/mL"}, {"measurement": "MIC", "setting": "[9]; 24 h, strain 4BD2, Pecan leaf scorch", "value": 62.5, "unit": "µg/mL"}, {"measurement": "MIC", "setting": "[9]; 24 h, strain #6, Oleander leaf scorch", "value": 62.5, "unit": "µg/mL"}, {"measurement": "MIC", "setting": "[9]; 24 h, strain Cayuga, Pierce's disease of grapevine", "value": 125, "unit": "µg/mL"}, {"measurement": "MIC", "setting": "[9]; 24 h, strain Melody, Pierce's disease of grapevine", "value": 125, "unit": "µg/mL"}, {"measurement": "MIC", "setting": "[9]; 24 h, strain SLS#61, Sycamore leaf scorch", "value": 125, "unit": "µg/mL"}, {"measurement": "MIC", "setting": "[9]; 24 h, strain SLS-DC, Sycamore leaf scorch", "value": 125, "unit": "µg/mL"}, {"measurement": "MIC", "setting": "[9]; 24 h, strain Shiraz, Pierce's disease of grapevine", "value": 125, "unit": "µg/mL"}, {"measurement": "MIC", "setting": "[9]; 24 h, strain Yugo, Pierce's disease of grapevine", "value": 62.5, "unit": "µg/mL"}, {"measurement": "MIC", "setting": "[9]; strains from grape, plum, pecan, and oleander", "value": 62.5, "unit": "µg/mL"}, {"measurement": "treated vines positive for bacteria (isolation and ELISA)", "setting": "[10]; other vines, treated Day 206 and Day 213, sampled on Day 252", "value": "Four out of 15"}, {"measurement": "treated vines positive for presence of bacteria (isolation and ELISA)", "setting": "[10]; treated Day 0 and Day 7, sampled on Day 252", "value": "Three out of 15"}, {"measurement": "average branch length longer than control vines", "setting": "[11]", "value": "~6", "unit": "inches"}, {"measurement": "average fruit yield", "setting": "[12]", "value": "about 4.8 lbs of fruit per vine"}, {"measurement": "average increased yield", "setting": "[12]", "value": "about 6.25%"}, {"measurement": "concentration at which phytotoxic", "setting": "[13]; grape", "value": "approximately 5000 ppm"}, {"measurement": "phytotoxicity in grape", "setting": "[13]", "value": "phytotoxicity"}, {"measurement": "weekly observations of treated healthy vines", "setting": "[14]", "value": "no phytoplasma on any plants"}, {"measurement": "citral in growth media that reduced the concentration of E. coli", "setting": "[15]", "value": "more than 0.01%"}, {"measurement": "citral in growth media with bactericidal effect", "setting": "[15]", "value": 0.08, "unit": "%"}]}]}
